Laboratory results: patent US6147100A, “Pyrrolidine derivatives having phospholipase A2 inhibitory activity” (Shionogi & Co., Ltd., priority 1997, dated 2000)

Tests used:
cPLA2 = target: T1, cPLA2 (Homo sapiens, UniProt P47712); test: cPLA2 Inhibitory Activity; format: biochemical; conditions: 1-palmitoyl-2-[14C]-arachidonoyl-sn-glycero-3-phosphocholine 2.5 μM, sn-1,2-dioleoylglycerol 1.25 μM; pH 7.5, 15 min at 37° C.
T1 sequence (P47712 1-749): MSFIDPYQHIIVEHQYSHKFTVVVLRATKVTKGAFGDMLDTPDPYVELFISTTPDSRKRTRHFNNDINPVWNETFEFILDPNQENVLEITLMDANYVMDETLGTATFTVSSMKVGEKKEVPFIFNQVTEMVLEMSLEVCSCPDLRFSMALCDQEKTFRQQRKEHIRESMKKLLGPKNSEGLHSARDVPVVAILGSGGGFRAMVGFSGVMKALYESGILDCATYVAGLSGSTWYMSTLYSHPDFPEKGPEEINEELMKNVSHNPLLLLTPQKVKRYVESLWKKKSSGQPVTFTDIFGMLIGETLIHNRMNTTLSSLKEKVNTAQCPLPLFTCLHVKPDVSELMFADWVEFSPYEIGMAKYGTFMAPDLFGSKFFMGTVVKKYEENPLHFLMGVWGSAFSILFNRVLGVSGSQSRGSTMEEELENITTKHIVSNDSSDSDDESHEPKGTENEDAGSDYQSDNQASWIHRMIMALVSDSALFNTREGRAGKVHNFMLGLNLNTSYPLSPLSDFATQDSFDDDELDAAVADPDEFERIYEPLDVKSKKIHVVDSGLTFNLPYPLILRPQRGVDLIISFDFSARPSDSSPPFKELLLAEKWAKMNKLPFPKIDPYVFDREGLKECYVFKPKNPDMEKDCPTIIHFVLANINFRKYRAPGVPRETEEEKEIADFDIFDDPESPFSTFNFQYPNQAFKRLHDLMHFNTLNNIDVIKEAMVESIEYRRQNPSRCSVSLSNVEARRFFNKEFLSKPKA
Outline: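 Radiometric assay in 50 mM HEPES pH 7.5 with 1 mM CaCl2, 150 mM NaCl, 0.1 mg/ml BSA and 1.7 mM DTT; compound and substrate added, reaction started with enzyme, 15 min at 37° C. Released fatty acids extracted (Dole method), counted by liquid scintillation versus no-compound control.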

[1] = tested on: production of prostaglandin E2 by human fibroblasts; test: Inhibition of Production of Prostaglandin E2 in Human Fibroblasts (IL-1 stimulation); format: cell-based; conditions: Fibroblast; human fibroblasts under stimulation with IL-1
Outline: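 Human fibroblasts stimulated with IL-1, with prostaglandin E2 production measured in the presence of compound as a cellular read-out of cPLA2 inhibition.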

IC50 (cPLA2) [nM]	SMILES	IC50 [1] [nM]
59	O=C1NC(=O)/C(=C/c2ccc(C(=O)NC[C@@H]3C[C@@H](OCc4ccccc4Br)CN3C(=O)c3ccccc3C(=O)c3ccc(F)cc3)cc2)S1 [Compound A-33]	460
84	O=C1NC(=O)/C(=C/c2ccc(C(=O)NC[C@@H]3C[C@@H](OCc4ccccc4-c4ccsc4)CN3C(=O)c3ccccc3C(=O)c3ccc(F)cc3)cc2)S1 [Compound A-38]	430
35	COc1cccc(-c2ccccc2OC(C)C)c1O[C@@H]1C[C@@H](CNC(=O)c2ccc(/C=C3\SC(=O)NC3=O)cc2)N(C(=O)c2ccccc2C(=O)c2ccc(F)cc2)C1 [Compound A-122]	1400
38	CC(C)c1cccc(-c2ccccc2)c1O[C@@H]1C[C@@H](CNC(=O)c2ccc(/C=C3\SC(=O)NC3=O)cc2)N(C(=O)c2ccccc2C(=O)c2ccc(F)cc2)C1 [Compound A-104]	1300
420	O=C(C[C@@H]1C[C@@H](OCc2ccccc2-c2ccccc2)CN1C(=O)c1ccccc1C(=O)c1ccc(F)cc1)Nc1ccc(/C=C2\SC(=S)NC2=O)cc1 [Compound F-3]	3000
1000	O=C1NC(=O)/C(=C/c2ccc(C(=O)NC[C@@H]3C[C@@H](OCc4ccccc4-c4ccccc4)CN3C(=O)c3cccc4c3C(=O)c3ccccc3-4)cc2)S1 [Compound A-26]	170
200	O=C1NC(=O)/C(=C/c2ccc(C(=O)NC[C@@H]3C[C@@H](Cc4ccccc4-c4ccccc4)CN3C(=O)c3ccccc3C(=O)c3ccc(F)cc3)cc2)S1 [Compound O-1]	760
59	O=C1NC(=O)/C(=C/c2ccc(C(=O)NC[C@@H]3C[C@@H](Oc4ccccc4-c4cccc(C(F)(F)F)c4)CN3C(=O)c3ccccc3C(=O)c3ccc(F)cc3)cc2)S1 [Compound A-109]	1200
300	O=C1NC(=O)/C(=C/c2ccc(C(=O)NC[C@@H]3C[C@@H](OCc4ccccc4-c4ccccc4)CN3C(=O)c3ccccc3C(=O)c3ccc(Cl)cc3)cc2)S1 [Compound A-22]	180
48	O=C1NC(=O)/C(=C/c2ccc(C(=O)NC[C@@H]3C[C@@H](OCc4ccccc4-c4ccc5ccccc5c4)CN3C(=O)c3ccccc3C(=O)c3ccc(F)cc3)cc2)S1 [Compound A-36]	180
430	Cc1ccc(C(=O)c2ccccc2C(=O)N2C[C@H](OCc3ccccc3-c3ccccc3)C[C@H]2CNC(=O)c2ccc(/C=C3\SC(=O)NC3=O)cc2)cc1 [Compound A-21]	230
58	O=C1NC(=O)/C(=C/c2ccc(C(=O)NC[C@@H]3C[C@@H](COc4ccccc4-c4ccccc4)CN3C(=O)c3ccccc3C(=O)c3ccc(F)cc3)cc2)S1 [Compound O-2]	230
190	O=C1NC(=O)/C(=C/c2ccc(C(=O)NC[C@@H]3C[C@@H](Oc4ccc5ccccc5c4)CN3C(=O)c3ccccc3C(=O)c3ccc(F)cc3)cc2)S1 [Compound A-71]	310
140	CN(Cc1ccccc1)[C@@H]1C[C@@H](C(=O)Nc2ccc(/C=C3\SC(=S)NC3=O)cc2)N(C(=O)c2ccccc2C(=O)c2ccc(F)cc2)C1 [Compound N-1]	760
140	Cc1ccc(C(=O)c2ccccc2C(=O)N2C[C@H](OCc3ccccc3-c3ccccc3)C[C@H]2C(=O)Nc2ccc(/C=C3\SC(=S)NC3=O)cc2)cc1 [Compound B-6]	7100
41	COc1ccccc1-c1ccccc1O[C@@H]1C[C@@H](CNC(=O)c2ccc(/C=C3\SC(=O)NC3=O)cc2)N(C(=O)c2ccccc2C(=O)c2ccc(F)cc2)C1 [Compound A-107]	1100
49	O=C1NC(=O)C(=C/C=C/c2ccc(C(=O)NC[C@@H]3C[C@@H](OCc4ccccc4-c4ccccc4)CN3C(=O)c3ccccc3C(=O)c3ccc(F)cc3)cc2)S1 [Compound A-49]	120
190	CC(C)(C)c1ccccc1O[C@@H]1C[C@@H](CNC(=O)c2ccc(/C=C3\SC(=O)NC3=O)cc2)N(C(=O)c2ccccc2C(=O)c2ccc(F)cc2)C1 [Compound A-75]	2200
72	O=C1NC(=O)/C(=C/c2ccc(C(=O)NC[C@@H]3C[C@@H](Oc4ccccc4C4CCCC4)CN3C(=O)c3ccccc3C(=O)c3ccc(F)cc3)cc2)S1 [Compound A-76]	520
39	CC(C)N(Cc1ccccc1-c1ccccc1)[C@@H]1C[C@@H](CNC(=O)c2ccc(/C=C3\SC(=O)NC3=O)cc2)N(C(=O)c2ccccc2C(=O)c2ccc(F)cc2)C1 [Compound M-9]	3600
44	Cc1cccc(-c2ccccc2O[C@@H]2C[C@@H](CNC(=O)c3ccc(/C=C4\SC(=O)NC4=O)cc3)N(C(=O)c3ccccc3C(=O)c3ccc(F)cc3)C2)c1 [Compound A-108]	470
240	O=C1NC(=O)/C(=C/c2ccc(S(=O)(=O)NC[C@@H]3C[C@@H](SCc4ccccc4-c4ccccc4)CN3C(=O)c3ccccc3C(=O)c3ccc(F)cc3)s2)S1 [Compound I-9]	1800
49	O=C1NC(=O)/C(=C/c2ccc(C(=O)NC[C@@H]3C[C@@H](OCc4ccccc4-c4ccccc4)CN3C(=O)c3ccccc3C(=O)c3ccc(F)cc3)s2)S1 [Compound A-58]	1600
1400	O=C1NC(=O)/C(=C/c2ccc(C(=O)NC[C@@H]3C[C@@H](OCc4ccc(F)cc4F)CN3C(=O)c3ccccc3C(=O)c3ccccc3)cc2)S1 [Compound A-3]	900
1850	O=C1NC(=O)/C(=C/c2ccc(C(=O)NC[C@H]3C[C@H](SCc4ccccc4-c4ccccc4)CN3C(=O)c3ccccc3C(=O)c3ccc(F)cc3)cc2)S1 [Compound Q-4]	950
